Assay results from PubChem BioAssay AID1963597 (National Center for Advancing Translational Sciences (NCATS), 2024).
Residues, ends and D or L forms follow the SMILES beside them.

Tested on: human liver microsomes, metabolic stability half-life
Test: NCATS Human Liver Microsomal (HLM) Stability Profiling
Settings: higher = more stable; screened at 1 µM (by protocol)
Method in brief: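 Half-life derived from parent loss over 0–60 min (0, 5, 10, 15, 30, 60 min) at 37 °C. Incubations: 0.5 mg/mL microsomes, 1 µM test article, NADPH regeneration, pH 7.4 phosphate; quenched in acetonitrile containing albendazole, analysed by MS.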

Row | Compound | half-life [min]
1 | O=C(c1ccc(F)cc1)C1CCN(CCn2c(=S)[nH]c3ccccc3c2=O)CC1 | 8.98
2 | COc1ccccc1N1CCN(c2csc3ccc(Cl)cc3c2=O)CC1 | 15.7
3 | Cc1ccccc1-n1c([C@H](C)Nc2nc(N)nc3nc[nH]c23)nc2cccc(C)c2c1=O | 103
4 | CC1(C)O[C@@H]2C[C@H]3[C@@H]4C[C@H](F)C5=CC(=O)CC[C@]5(C)[C@H]4[C@@H](O)C[C@]3(C)[C@]2(C(=O)CO)O1 | 18
5 | O=C(O)CCCc1ccccc1 | > 120
6 | CN(C)CCCO[C@H]1C([C@H](O)CO)O[C@@H]2OC(C)(C)O[C@@H]21 (some centres undefined) | 78.9
7 | Clc1ccc(CO/N=C(\Cn2ccnc2)c2ccc(Cl)cc2Cl)c(Cl)c1 | 55.1
8 | CCOc1ccc(S(=O)(=O)N2CCCCCC2)c2ccccc12 | 6.52
9 | COc1cc(Nc2nc3ccccc3nc2NS(=O)(=O)c2ccc(NC(=O)c3ccc(OC)c(C)c3)cc2)cc(OC)c1 | > 120
10 | O=C(NCc1ccco1)c1ccc2c(c1)N(Cc1cccc(Cl)c1)C(=O)c1ccccc1S2=O (centres undefined) | 0.62
11 | CCN1CCN(C(=O)Cc2ccc(Nc3ncc(F)c(Nc4ccc(C(=O)Nc5ccccc5Cl)cc4)n3)cc2)CC1 | 4.23
12 | CCCc1ccc(OCC(=O)N2CCN(C(=O)COc3ccc(CCC)cc3OC)CC2)c(OC)c1 | 2.8
13 | CC(C)(C)NC[C@H](O)COc1cccc2c1CCCC2=O | > 120
14 | CCN(CC)C(=O)C1CN2CCc3cc(OC)c(OC)cc3C2CC1OC(C)=O (centres undefined) | > 120
15 | Cc1cc(C(C)(C)C)c(O)c(C(C)(C)C)c1 | > 120
16 | Cc1cc(Nc2nc(N[C@@H](C)c3ccc(F)cc3)c(C#N)cc2F)n[nH]1 | > 120
17 | CCN(CC)CCCCCCNc1cc(OC)cc2c(C)ccnc12 | > 120
18 | Cc1cccc(C(=O)O)c1O | > 120
19 | CCN1CC(CCN2CCOCC2)C(c2ccccc2)(c2ccccc2)C1=O (centres undefined) | 33.9
20 | CCn1cc(C(=O)O)c(=O)c2cc(F)c(N3CCN[C@@H](C)C3)c(F)c21 | 87.7
21 | c1ccc(OCc2ccc(CCCN3CCOCC3)cc2)cc1 | 26.7
22 | CN1CCCC(CC2c3ccccc3Sc3ccccc32)C1 (centres undefined) | 48.7
23 | CCN1C(=O)c2ccccc2C1Nc1ccc(OCCN2CCCCC2)cc1 (centres undefined) | 105
24 | CC(=O)c1ccc(N2CCN(c3ncnc4c3cnn4C)CC2)cc1 | 109
25 | CCCC(Nc1nc(-c2ccc(NC(=O)NCC)c(OC)c2)ncc1C)c1cccnc1 (centres undefined) | 30.5
26 | O=C(CCCCCn1c(=O)c2sccc2n(CC(=O)Nc2cccc(Cl)c2)c1=O)NCc1ccc2c(c1)OCO2 | 9.36

Row | Compound | half-life [min]
27 | CCOP(=S)(OCC)Oc1nc(Cl)n(C(C)C)n1 | 15.1
28 | O=C(Cn1ncc2c([nH]c3ccccc32)c1=O)NCCCN1CCN(c2ccccc2)CC1 | > 120
29 | COc1cc2c(Oc3ccc(-c4cnc(Nc5ccc(F)cc5)n(C)c4=O)cc3F)ccnc2cc1OCCCN1CCOCC1 | 30.6
30 | FC(F)(F)Oc1ccc(-c2ccc3nnc(C(F)(F)F)n3c2)cc1 | > 120
31 | CCCOc1cc(N)ccc1C(=O)OCCN(CC)CC | 70.3
32 | O=C(c1ccc(F)cc1)N1CCC(C(=O)N2CCC(N3Cc4ccccc4C3=O)CC2)CC1 | > 120
33 | COCC(C)N(C(=O)CCl)c1c(C)csc1C (centres undefined) | 10.9
34 | Fc1ccc(C2CCNC[C@H]2COc2ccc3c(c2)OCO3)cc1 (some centres undefined) | 28.9
35 | C[C@H]1CN(CC[C@H](O)C2CCCCC2)CC[C@@]1(C)c1cccc(O)c1 | 6.75
36 | COc1ccc2c(c1OC)C(=O)O[C@@H]2[C@H]1c2cc3c(cc2CCN1C)OCO3 | 103
37 | Cc1cc(C(C)Nc2ccccc2C(=O)O)c2nc(N3CCOCC3)cc(=O)n2c1 (centres undefined) | > 120
38 | NC(=O)c1ccccc1O | > 120
39 | NC(=O)N1CCC(CC(=O)N2CCC(C3c4ncc(Br)cc4CCc4cc(Cl)cc(Br)c43)CC2)CC1 (centres undefined) | 5.45
40 | CN1C(=O)COc2c(C(=O)NC3CN4CCC3CC4)cc(Cl)cc21 (centres undefined) | > 120
41 | CC(C)(C)C1CCC(CC2=C(O)c3ccccc3C(=O)C2=O)CC1 (centres undefined) | > 120
42 | CCN(CC)C(=O)/C(Cl)=C(\C)OP(=O)(OC)OC | > 120
43 | CCOC(=O)c1c(NC(=O)c2ccc(S(=O)(=O)N(C)C3CCCCC3)cc2)sc2c1CCN(C(C)C)C2 | 2.21
44 | COc1ccc(C2Nc3ccccc3C(=O)N2Cc2ccco2)cc1COc1ccc(NC(C)=O)cc1 (centres undefined) | 2.15
45 | CC1=C(C(=O)Nc2cccc(-c3cn[nH]c3)c2)C(c2ccccc2Cl)N=C(Nc2nc3ccccc3o2)N1 (centres undefined) | 49.1
46 | Cc1nc2c(C(F)(F)F)cccc2nc1-c1ccc(-c2cccc(S(C)(=O)=O)c2)cc1 | > 120
47 | CN(C)S(=O)(=O)c1ccc(S(=O)(=O)N(Cc2ccccc2Cl)C[C@@H]2CCCO2)cc1 | 1.28
48 | CC1CC(C)C(=O)C(C(O)CC2CC(=O)NC(=O)C2)C1 (centres undefined) | > 120
49 | CCOCCn1c(C2CCN(CCc3ccc(C(C)(C)C(=O)O)cc3)CC2)nc2ccccc21 | > 120
50 | CCc1ccc(CNC(=O)c2sc3ncccc3c2-n2c(C)ccc2C)cc1 | 1.9
51 | CCOC(=O)c1sc(NC(=O)c2c(-c3ccccc3)c(-c3ccccc3)nn(C)c2=O)nc1C | > 120
52 | N#Cc1cc(-c2n[nH]c(-c3ccncc3)n2)ccn1 | 90.6

Row | Compound | half-life [min]
53 | CN(C(=O)C(c1ccccc1)c1ccccc1)[C@H](CN1CC[C@H](O)C1)c1ccccc1 | 9.29
54 | Cc1ccc(O)cc1Nc1ccnc(Nc2cccc(C(N)=O)c2)n1 | 86.5
55 | CCCCNc1ncc2c(-c3ccc(F)cc3)nn(CC3CCC(N)CC3)c2n1 (centres undefined) | > 120
56 | COc1ccc(OC)c([C@H](O)[C@H](C)N)c1 | > 120
57 | COC(=O)[C@H](Cc1ccccc1)NC(=O)[C@@H](N)CC(=O)O (H-Asp-Phe-OMe) | 40.7
58 | Cc1cc(=O)oc2cc(O)ccc12 | 60.6
59 | Oc1ccccc1-c1nnco1 | 43.3
60 | CC(=O)OCC(=O)[C@@]12OC(C)(C)O[C@@H]1C[C@H]1[C@@H]3C[C@H](F)C4=CC(=O)C=C[C@]4(C)[C@@]3(F)[C@@H](O)C[C@@]12C | 44.3
61 | CC(=O)[C@H]1CC[C@H]2C3CC=C4C[C@@H](O)CC[C@]4(C)C3CC[C@]12C (some centres undefined) | 106
62 | O=C(CCNc1c(-c2cccc(F)c2)nc2cnccn12)N1CCCC1 | 4.93
63 | CCN1CCC[C@H]1CNC(=O)c1c(O)c(Cl)cc(Cl)c1OC | > 120
64 | COc1ccc(N(C(=O)Nc2c(C)cccc2C)c2cc(Nc3ccc(N4CCN(C)CC4)cc3)ncn2)c(OC)c1 | 17.1
65 | CCn1c(-c2nonc2N)nc2c(C#CCO)ncc(OCCCN)c21 | > 120
66 | COc1ccccc1N1CCNCC1 | > 120
67 | COc1ccc(-c2cc(=S)ss2)cc1 | 0.73
68 | CCCCCCCCC=CCCCCCCCC(=O)NCCOC(=O)CC(C(=O)O)S(=O)(=O)O (centres undefined) | > 120
69 | Fc1ccc2[nH]c(CN3CCN(c4ccccn4)CC3)cc2c1 | 14.3
70 | O=c1oc2ccccc2c(O)c1Cc1c(O)c2ccccc2oc1=O | 33.3
71 | COC(=O)[C@@H]1[C@H]2C[C@H]3c4[nH]c5ccccc5c4CCN3C[C@@H]2CC[C@@H]1O | 83.9
72 | CC(C)(C)NCC(O)COc1ccc(NC(=O)NC2CCCCC2)cc1 (centres undefined) | > 120
73 | NC(=O)c1ccccc1Nc1ccnc(Nc2cccc(O)c2)n1 | 21.8
74 | Cc1ccc(C(=O)NC2CCN(c3cnn(CC4CC4)c(=O)c3)CC2)cc1C | > 120
75 | CCOc1cc(CC(=O)N[C@@H](CC(C)C)c2ccccc2N2CCCCC2)ccc1C(=O)O | 44.3
76 | CCNP(=S)(OC)O/C(C)=C/C(=O)OC(C)C (centres undefined) | > 120
77 | COc1ccc(CCN(C)CCC[C@@](C#N)(c2cc(OC)c(OC)c(OC)c2)C(C)C)cc1OC | 7.68
78 | Cc1nn2c(c1-c1ccccc1Oc1ccccc1)N(Cc1ccc(C(=O)O)cc1)CCC2 | 6.19

Row | Compound | half-life [min]
79 | COCC(=O)Nc1c(I)c(C(=O)NCC(O)CO)c(I)c(C(=O)N(C)CC(O)CO)c1I (centres undefined) | 84.2
80 | Cc1ccccc1C(C(=O)NC1CCCCC1)N(C(=O)CNc1ccc(C#N)cc1)c1cccc(F)c1 (centres undefined) | 2.58
81 | Cc1ccc2c(c1)c1c3n2CCNC3CCC1 (centres undefined) | 8.9
82 | CC(C)(C)c1coc([C@@H]2COCCN2Cc2ccc(C(=O)O)cc2)n1 | 80.9
83 | C#CCOC(C(=O)OCCN(C)C)(c1ccccc1)c1ccccc1 | 43.7
84 | C=CCOC1=C(OCC(O)CNC(C)C)CCCC1 (centres undefined) | > 120
85 | COc1ccc(C(=O)C2CCN(CC(=O)N(Cc3nc4c(c(=O)[nH]3)COCC4)CC3CC3)CC2)cc1 | 81.7
86 | CCc1cc(Cl)c(OC)c(C(=O)NC[C@@H]2CCCN2CC)c1O | 13.6
87 | Cn1c(=O)cc(N2CCCC(N)C2)n(Cc2ccccc2C#N)c1=O (centres undefined) | > 120
88 | CC(C(=O)O)C1C=CC(C(=O)c2ccccc2)S1 (centres undefined) | > 120
89 | COc1ccc(C(=O)c2ccccc2O)c(O)c1 | 8.9
90 | O=C(O)C1CN(Cc2ccc(-c3nc4cc(Cc5ccccc5F)ccc4s3)c(F)c2)C1 | > 120
91 | CCC(CC)Nc1nc(C)c(-c2ccc(OC(F)(F)F)cc2OC)nc1OC | 20.5
92 | CC(CN1c2ccccc2Sc2ccccc21)N(C)C (centres undefined) | 32.3
93 | O=C(CCC1CCN(Cc2ccccc2)CC1)c1ccc2c(c1)NCCCC2 | 5.22
94 | CN(C)[C@@H]1C(=O)C(C(N)=O)=C(O)[C@@]2(O)C(=O)C3=C(O)c4c(O)cccc4C[C@H]3C[C@@H]12 | > 120
95 | COc1ccc(-n2nc(C3CCCN(CC4CCCCC4)C3)[nH]c2=O)cc1 (centres undefined) | 108
96 | COc1ccc(-n2nc(CCC(=O)N(C)O)cc2-c2ccc(Cl)cc2)cc1 | 39.1
97 | CC1(C)SCCN(S(=O)(=O)c2ccc(OCC#CCO)cc2)[C@@H]1C(=O)NO | > 120
98 | NS(=O)(=O)c1ccc(Cc2c(-c3cccc(-c4ccccc4)c3)nn(-c3nc(C(=O)O)cs3)c2CC2CC2)cc1 | 83.6
99 | CN1CCN(CCCN2c3ccccc3Sc3ccc(C(F)(F)F)cc32)CC1 | 22.5
100 | COc1ccc(C(=O)NC2CCN(c3cnn(CC4CC4)c(=O)c3)CC2)c(OC)n1 | > 120
101 | CCOC(=O)c1ccc(OCCN2C[C@H](O)[C@@H](O)[C@H](O)[C@H]2CO)cc1 | > 120
102 | CCCc1nc(C)c2c(=O)[nH]c(-c3cc(S(=O)(=O)N4CCN(CC)CC4)ccc3OCC)nn12 | > 120
103 | CC(=O)OCC(CCn1cnc2cnc(N)nc21)COC(C)=O | 2.34
104 | Clc1cccc(N2CCNCC2)c1 | 39.8
